Test results reported in patent US20130136772A1, “REGULATION OF IMMUNE RESPONSE BY COLOCYNTHIN AND/OR ITS DERIVATIVES” (priority 2010, published 2013).

Legend:
IL-2 = experiment: Intracellular IL-2 expression in SRBC immunised mice; type: in vivo, Swiss albino mice; conditions: graded doses; most significant suppression at 10 mg/kg p.o.
Experimental: Estimation of intracellular cytokines: The animals were immunized as mentioned above. After 6 days of drug administration, the animals were challenged on day 7. After 48 h of challenge, the blood was collected in the tubes containing EDTA (anti-coagulant) from retro-orbital plexes of animals to determine the effect of test material on the expression of intracellular IL-2 and IFN-γ (Th1) and IL-4 (Th2) cytokines. In this study, PE labeled IL-2 monoclonal antibody was used in one set and PE labeled IFN-γ and FITC labelled IL-4 monoclonal antibody was used in the other set of experimentation (FIG. 7, 8, 9).

IL-1 beta = experiment: In vivo IL-1 beta estimation in serum of LPS challenged mice; design: species or system balb/c mice; conditions: 1, 2.5, 5 and 10 mg/kg oral for 6 days, LPS 1 mg/kg i.v., serum 90 min after LPS
Experimental: Invivo experiments were carried out using balb/c mice that were orally administrated with graded oral doses of AD-B-63B (1, 2.5, 5 and 10 mg/kg) for 6 days and challenged with LPS. Nitric oxide (NO) is an important mediator of diverse physiologic and pathologic processes, including many inflammatory diseases [Abramson S B, Amin A R, Clancy R M, Attur M, (2001). The role of nitric oxide in tissue destruction. Best Practice & Research Clinical Rheumatology; 15: 831-845]. Several lines of evidence implicate NO in the pathogenesis of inflammation. For example, rodents in animal models of arthritis generate abundant quantities of NO, as reflected in high levels of serum and urinary NO that develop in association with disease manifestations [Stefanovic-Racic M, Meyers K, Meschter C, Coffey J W, Hoffman R A, Evans C H, (1994). Monomethyl arginine, an inhibitor of nitric oxide synthase, suppresses the development of adjuvant arthritis in rats. Arthritis & Rheumatism; 37: 1062-1069.] [McCartney-Francis N, Allen J B, Mizel D E, Albina J E, Xie Q W, Nathan C F, Wahl S M, (1993). Suppression of arthritis by an inhibitor of nitric oxide synthase. Journal of Experimental Medicine; 178: 749-754.] [Weinberg J B, (1998). […] TNF-α, IL-1 beta and Nitric oxide production was evaluated by a commercial ELISA kits (R&D Systems) in serum from AD-B-63B treated mice, 90 min after LPS injection.

vascular permeability = experiment: Acetic acid-induced vascular permeability; type: in vivo, mice; conditions: for DYE CONCENTRATION: Evans blue, acetic acid i.p.
Experimental: Acetic acid-induced increased vascular permeability in mouse model is a capillary permeability assay. Reduction in the increased peritoneal vascular permeability indicates the suppression of the vascular response in the process of acute inflammation.
Mice were injected with […] of Evans blue dye (0.25% w/v in normal saline) intravenously after 30 min of oral administration of the drug. Fifteen minutes later, the mice were injected intraperitoneally (1 ml/100 g of body weight) with freshly prepared 0.6% of acetic acid (v/v) in normal saline. After 30 min of acetic acid injection, the peritoneal cavities were washed with 5 ml of heparinised sterile normal saline and centrifuged (3000×g) for 10 min Absorbance of the supernatant was measured at 610 nm using a spectrophotometer (Table 3) [Whittle B. A. The use of changes in capillary permeability in mice to distinguish between narcotic and non-narcotic analgesics. Brit J Pharmacol 1964; 2: 246-253].

[1] = test system: macrophage phagocytic response; experiment: Clearance rate of carbon particles from the circulation (phagocytic index, in vivo); design: species or system mice
Experimental: K., Sharma, M. L., Kaul, A and Khajuria, A. (1986) Immunomodulating agents of plant origin. 1. Preliminary screening. Journal of Ethnopharmacology. 18, 133-141.] Blood samples were collected before and at intervals varying between 2 and 90 min after carbon injection. An aliquot (10 μL) of blood samples were lysed with 2mL of 0.1% acetic acid and the transparency determined spectrophotometrically at 675 nm (Uvikon 810, spectrophotometer, Kontron Ltd., Switzerland) (Hudson and Hay, 1980). AD-B-63B was administered orally for 7 days and 30 min prior to the carbon injection. The rate of carbon clearance termed as phagocytic index was calculated (Table 4).

## CC(=O)OC(C)(C)/C=C/C(=O)[C@](C)(O)[C@H]1[C@H](O)C[C@@]2(C)[C@@H]3CC=C4[C@@H](C=C(O[C@@H]5O[C@H](CO)[C@@H](O)[C@H](O)[C@H]5O)C(=O)C4(C)C)[C@]3(C)C(=O)C[C@]12C [AD-B-63B, 2-O-β-D-glucopyranosyl cucurbitacin E]
IL-2
  expression of intracellular IL-2: decrease
IL-1 beta
  Level of serum IL-1 beta: significant reduction
Vascular permeability; 1 mg/kg p.o.
  percent reduction of dye concentration: (10.71%↓)
  DYE CONCENTRATION: 0.50 ± 0.02 μg/25 g mouse
Vascular permeability; 5 mg/kg p.o.
  percent reduction of dye concentration: 32.14%
  DYE CONCENTRATION: 0.38 ± 0.02 μg/25 g mouse
Vascular permeability; 5 mg/kg p.o., listed as AD-B-63-B
  percent reduction of dye concentration: (32.14%↓)
Vascular permeability; 10 mg/kg p.o.
  percent reduction of dye concentration: 35.71%
  DYE CONCENTRATION: 0.36 ± 0.02 μg/25 g mouse
Vascular permeability; 10 mg/kg p.o., listed as AD-B-63-B
  percent reduction of dye concentration: (35.71%↓)
[1]; 1 mg/kg
  percent decrease in phagocytic index: (14.28%↓)
[1]; 1 mg/kg orally for 7 days
  Phagocytic index [in vivo study] Mean ± S.E.: 1.08 ± 0.09
[1]; 5 mg/kg
  percent decrease in phagocytic index: (26.98%↓)
[1]; 5 mg/kg orally for 7 days
  Phagocytic index [in vivo study] Mean ± S.E.: 0.92 ± 0.04
[1]; 10 mg/kg
  percent decrease in phagocytic index: (26.19%↓)
[1]; 10 mg/kg orally for 7 days
  Phagocytic index [in vivo study] Mean ± S.E.: 0.93 ± 0.07
[1]; dose range of 1-10 mg/kg, oral for 7 days
  decrease in phagocytic index: 14.28-26.19%
